This is an account of results in US5677350A, “Inhibition of cancer cell growth, proliferation, and metastasis using N,N'-dα,ω-diaminoalkanes” (priority 1995, dated 1997).

Data set [1] addresses T1, ODC (Rattus norvegicus, UniProt P09057).
T1 sequence (P09057 1-461): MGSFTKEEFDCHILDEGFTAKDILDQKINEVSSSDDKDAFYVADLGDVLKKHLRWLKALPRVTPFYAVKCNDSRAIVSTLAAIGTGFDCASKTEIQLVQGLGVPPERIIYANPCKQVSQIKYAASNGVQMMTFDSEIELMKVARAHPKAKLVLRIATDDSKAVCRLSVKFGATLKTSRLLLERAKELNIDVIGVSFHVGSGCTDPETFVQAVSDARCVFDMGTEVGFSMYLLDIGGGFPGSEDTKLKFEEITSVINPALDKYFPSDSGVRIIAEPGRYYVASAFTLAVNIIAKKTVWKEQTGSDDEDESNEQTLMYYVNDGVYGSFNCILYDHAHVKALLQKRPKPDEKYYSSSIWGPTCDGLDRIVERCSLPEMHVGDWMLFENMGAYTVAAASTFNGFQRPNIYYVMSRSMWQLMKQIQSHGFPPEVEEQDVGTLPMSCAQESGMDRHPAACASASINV
Particulars: for inhibition at 15000 µM: read-out: ODC activity decreased.

The target in data set [2] is T1, ODC. The data set can be described thus: ODC activity in insulin-induced H-35 hepatoma cells. Format: cell-based. To be noted: 100 μM; for ODC activity (in words): added simultaneously with insulin. The protocol: It is known that in hepatoma H-35 cells, ODC activity is very low in quiescent cells, and is increased by the addition of 10^-6 M insulin, reaching a peak approximately 4 to 5 hours after the addition of the insulin.

The next data set concerns H-35 cells. Briefly: DBP uptake and intracellular distribution in H-35 hepatoma cells. The format is in vitro ADME, rat.
For data set [3], the system named is rat H-4-II-E hepatoma cells. Briefly: Proliferation of rat H-4-II-E hepatoma cells in culture. Format: cell-based. The protocol:
(§1) Incubation of the cultures was carried out in standard fashion in the presence of 1 mM aminoguandine, an inhibitor of polyamine oxidases (PAO).
Cell proliferation studies were also conducted to analyze the effect of the terminal groups on cell inhibition. […] The results are depicted graphically in FIG. 5.
Comparative proliferation studies were also carried out to study the effect of chain length on the inhibitory effect of N,N'-dibenzylaminoalkanes. (See FIG. 6.) The in vitro inhibitory effects of DMP, DMC, and DBPr, were studied in the same rat H-4-II-E hepatoma cells as the above experiments.
Results are shown graphically in FIG. 10.

In data set [4] the test system is rat H-4-II-E hepatoma cells. The data set can be described thus: Cell morphology of rat H-4-II-E hepatoma cells (photomicrographs). Format: cell-based. The protocol: as §1
FIG. 7 is a series of photomicrographs (×160) of the above homologous cultures. The photomicrographs were taken 24 hours after introduction of the dibenzyldiaminoalkanes. […] Photo 7A is the control culture.

The test system of data set [5] is active putrescine transport. Briefly: Uptake of (1,4-14C)-putrescine by H-4-II-E hepatoma cells. Format: cell-based, rat. The protocol: (1,4-^14 C)-putrescine (10 μM) was added to the culture medium, and radioactivity measured in the cells (dpm/10 μg of protein). Uptake by control cells was considered to be 100%.
Because putrescine uptake by cells is regulated by an active transport system, its Km was determined for the H-4-II-E hepatoma cell line. The uptake of (1,4-^14 C)-putrescine was determined at two different putrescine concentrations as a function of time.
Each value of the plot was corrected by subtracting the amount of label due to non-specific binding to the cell membranae.

The subject of data set [6] is insulin-induced H-35 hepatoma cells. The data set can be described thus: Intracellular polyamine levels in insulin-induced H-35 hepatoma cells. The format is cell-based, rat. Particulars: 100 μM, hour 4.
Data set [7] has as its system cell-derived rat and human xenografts. Particulars: compared with 0.15% DBP; cited from earlier work.
The mark [8] stands for this setting: added 3 hours after insulin (time 4 hours).
[9] abbreviates: H-35 cells not treated with insulin.

Take `CNCCCCNC` [DMP, dimethyl putrescine]: at ODC [1], the inhibition at 15000 µM amounted to 33%.

On to `c1ccc(CNCCCNCc2ccccc2)cc1` [DBPr, dibenzylpropanediamine], for which the inhibition at 15000 µM on ODC [1] was below 10%.

Turning to `c1ccc(CNCCCCNCc2ccccc2)cc1` [DBP, N,N'-dibenzylputrescine], the “ODC inhibition (in words)” value at ODC [2] (setting [8]) is “ODC inhibition values were very similar”; at ODC [2] (time 1 hour), “required longer time periods to reach similar ODC inhibition levels”. Moreover, the “ODC activity (in words)” value on ODC [2] is reported as “no significant ODC activity was detected”. Further, the “intracellular distribution of DBP, cytosol” value with H-35 cells (setting [9]) is given as 97%. In addition, in the data set on H-35 cells (setting [9]), the “intracellular distribution of DBP, nuclear fraction” value was 2%. For the same compound, the “DBP uptake, of the amount added” value with H-35 cells (H-35 cells not treated with insulin, 100 μM, 24 hours) is given as “approximately 6±2%”. Also, the “DBP uptake, of the amount of putrescine added to the medium” value in the data set on H-35 cells (insulin-induced H-35 cells, 100 μM) is on record as “approximately 13±4%”. For the same compound, the inhibition at 15000 µM at ODC [1] was below 10%.

As for `CCNCCCCNCC` [DEP, diethyl putrescine], on ODC [1], the inhibition at 15000 µM came to 13%.

Regarding `c1ccc(CNCCCCCNCc2ccccc2)cc1` [DBC, N,N'-dibenzylcadaverine], the “effect on cell proliferation” value in data set [3] (100 μM, time not stated) is “showed inhibition of cell proliferation”. Further, in data set [4] (100 μM, 24 hours), the “effect on cell morphology” value is reported as “affect cell morphology similarly”. In data set [5] ((1,4-14C)-putrescine 10 μM), the “inhibition of uptake of exogenous putrescine” value is recorded as “produced an inhibition of the uptake of exogenous putrescine”. Also, at ODC [2] (setting [8]), the “ODC inhibition (in words)” value is listed as “ODC inhibition values were very similar”. Further, the “ODC activity (in words)” value at ODC [2] is on record as “no significant ODC activity was detected”. The “in vitro ODC inhibition (in words)” value on ODC [1] (isolated ODC) is listed as “weaker inhibitors than putrescine itself”. The inhibition at 15000 µM at ODC [1] is below 10%.

In the case of `NCCCCN` [putrescine, 1,4-diaminobutane], the Michaelis-Menten constant (Km) in data set [5] (2 mM and 20 mM (1,4-14C)-putrescine) was found to be 5.2 ± 0.6 µM. In addition, on ODC [2] (time 1 hour), the “ODC inhibition (in words)” value is on record as “required longer time periods to reach similar ODC inhibition levels”. For the same compound, in data set [6], the intracellular putrescine level result was “greatly increased the putrescine cell contents”; the intracellular spermidine level result is “very little effect on intracellular spermidine and spermine levels”; the intracellular spermine level entry was “very little effect on intracellular spermidine and spermine levels”. For the same compound, the inhibition at 15000 µM at ODC [1] was 57%.

For the compound `NCCCC(N)(C(=O)O)C(F)F` (stereo not drawn) [DFMO, difluoromethylornithine], the “effect on cell proliferation” value in data set [3] (100 μM, time not stated) is given as “ineffective in inhibiting cell proliferation”. For the same compound, the “effect on cell proliferation” value in data set [3] (1 mM, after 48 hours) is reported as “inhibit cell proliferation”. Moreover, the minimal effective concentration in data set [3] (H4IIE, rat hepatoma cell line, read-out: concentration required for similar cytostatic effect) is 1000 µM. Besides, the “effect on cell morphology” value in data set [4] (100 μM, 24 hours) is “no morphological changes”. The “effect on cell morphology” value in data set [4] (1 mM) is on record as “no morphological changes”. Further, the “ODC inhibited from the control group” value at ODC [2] (added 1 hour before harvesting (6 hours after insulin)) was 79%. For the same compound, the “ODC inhibition (in words)” value on ODC [2] (setting [8]) is “ODC inhibition values were very similar”. The “ODC activity (in words)” value on ODC [2] is “no significant ODC activity was detected”. In data set [6], the intracellular putrescine level entry was “decreased the endogenous levels of putrescine”, the intracellular spermidine level result is listed as “lowered the levels of spermidine” and the intracellular spermine level entry was “Neither reagent had an effect on the intracellular concentration of spermine”. Besides, the “concentration required to produce the same effect on xenografts” value in data set [7] is 2%.
